Our source for the IC50 values is ChEMBL document CHEMBL1125749, “trans-3-n-propyl-L-proline is a highly favorable, conformationally restricted replacement for methionine in the C-terminal tetrapeptide of cholecystokinin. Stereoselective synthesis of 3-allyl- and 3-n-propyl-L-proline derivatives from 4-hydroxy-L-proline” (J Med Chem, 1991).

Each structure is given as a SMILES string. Square brackets hold non-standard residues; d marks the D form. Peptide text beside a SMILES is read from it. * marks the point of attachment. Nle = CCCC[C@H](N)C(=O)O; Boc = CC(C)(C)OC(=O)*

This test concerns the target T1, Cholecystokinin receptor type A (Cavia porcellus, UniProt Q63931).
T1 sequence (Q63931 whole entry): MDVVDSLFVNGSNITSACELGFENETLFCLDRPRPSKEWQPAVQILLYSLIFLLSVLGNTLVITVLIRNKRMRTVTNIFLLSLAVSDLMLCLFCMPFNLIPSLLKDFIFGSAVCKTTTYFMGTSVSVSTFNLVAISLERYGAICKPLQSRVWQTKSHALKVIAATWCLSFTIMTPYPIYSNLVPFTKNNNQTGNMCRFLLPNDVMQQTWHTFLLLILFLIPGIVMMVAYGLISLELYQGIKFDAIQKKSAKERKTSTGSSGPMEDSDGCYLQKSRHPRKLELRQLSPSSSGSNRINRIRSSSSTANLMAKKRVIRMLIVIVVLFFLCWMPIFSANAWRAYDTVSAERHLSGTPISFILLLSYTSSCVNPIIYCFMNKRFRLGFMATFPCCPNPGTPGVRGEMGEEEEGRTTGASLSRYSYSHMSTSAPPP
Briefly: Compound was tested for its inhibitory activity in pancreatic cholecystokinin type A receptor in guinea pig.

The IC50 is the point on the concentration scale where inhibition reaches its midpoint. A lower IC50 goes with higher potency.

In the case of `CCCC[C@H](NC(=O)[C@H](Cc1c[nH]c2ccccc12)NC(=O)OC(C)(C)C)C(=O)N[C@@H](CC(=O)O)C(=O)N[C@@H](Cc1ccccc1)C(N)=O` (Boc-W[Nle]DF-NH2), the IC50 was determined as 4 µM.

`C[C@H](NC(=O)[C@H](Cc1c[nH]c2ccccc12)NC(=O)OC(C)(C)C)C(=O)N[C@@H](CC(=O)O)C(=O)N[C@@H](Cc1ccccc1)C(N)=O` (Boc-WADF-NH2) gave an IC50 of 10.3 µM.

Compound `CC(C)(C)OC(=O)N[C@@H](Cc1c[nH]c2ccccc12)C(=O)N1CCC[C@H]1C(=O)N[C@@H](CC(=O)O)C(=O)N[C@@H](Cc1ccccc1)C(N)=O` (Boc-WPDF-NH2) gave an IC50 of 2.1 µM.

`CCC[C@@H]1CCN(C(=O)[C@H](Cc2c[nH]c3ccccc23)NC(=O)OC(C)(C)C)[C@@H]1C(=O)N[C@@H](CC(=O)O)C(=O)N[C@@H](Cc1ccccc1)C(N)=O` yielded an IC50 of 2.7 µM.
